Measured values published in patent publication US9540350B2, “1-substituted, 4-(substituted phenoxymethyl)-1,2,3-triazole compounds with antifungal properties and methods for preparation thereof” (FDC LIMITED, priority 2013, dated 2017).
≈ marks a conversion by molar mass, not a printed value. Like-named read-outs stand apart in the source and are kept apart here.

Columns and labels:
[1] = test system: C. albicans ATCC 24433; test: Antifungal susceptibility, broth dilution MIC (CLSI M27-A2); format: cell-based; settings: Candida albicans, read-out: Activity against organisms (MIC50) Ca01
Procedure: (§1) The compounds of Formula 1 were tested for antifungal activity against Candida albicans, C. glabrata, C. krusei, C. tropicalis, Cryptococcus neoformans, Aspergillus fumigatus, A. niger and Fusarium proliferatum. In vitro evaluation of antifungal activity was performed by determining the minimum inhibitory concentration (MIC) following standard methods (CLSI: Reference method for broth dilution antifungal susceptibility testing of yeasts; Approved standard, second edition M27-A2, 2002; CLSI: Reference method for broth dilution antifungal susceptibility testing of filamentous fungi; Approved standard M38-A, 2002). Anti-fungal susceptibility testing of these anti-fungal compounds was done by broth dilution method using RPMI 1640 medium with MOPS buffer. Known anti-fungal agent fluconazole was used as positive control. End points were determined after 48 hours visually and by using spectrophotometer wherever necessary. Different dilutions were tried and various sets of experiments performed. The activity parameters are enumerated in Table 4.

[2] = test system: C. glabrata ATCC 90030; test: as above; format: cell-based, Candida glabrata; settings: Nakaseomyces glabratus, read-out: Activity against organisms (MIC50) Cg01
Procedure: as §1

[3] = test system: C. krusei ATCC 6258; test: as above; format: cell-based, Candida krusei; settings: Pichia kudriavzevii, read-out: Activity against organisms (MIC50) Ck01
Procedure: as §1

[4] = test system: C. tropicalis ATCC 750; test: as above; format: cell-based, Candida tropicalis; settings: for MIC50: Candida tropicalis, read-out: Activity against organisms (MIC50) Ct01
Procedure: as §1

[5] = test system: C. neoformans ATCC 34664; test: as above; format: cell-based, Cryptococcus neoformans; settings: for MIC50: Cryptococcus neoformans, read-out: Activity against organisms (MIC50) Cn01
Procedure: as §1

[6] = test system: A. fumigatus ATCC 46645; test: Antifungal susceptibility, broth dilution MIC (CLSI M38-A); format: cell-based; settings: Aspergillus fumigatus, read-out: Activity against organisms (MIC50) Afm01
Procedure: as §1

[7] = test system: A. niger ATCC 16404; test: as above; format: cell-based; settings: Aspergillus niger, read-out: Activity against organisms (MIC50) An01
Procedure: as §1

[8] = test system: F. proliferatum ATCC 10052; test: as above; format: cell-based; settings: Fusarium proliferatum, read-out: Activity against organisms (MIC50) Fp01
Procedure: as §1

[9] = ATCC24433, C. albicans ATCC 24433, broth dilution, RPMI 1640 with MOPS, 48 hours
[10] = ATCC90030, C. glabrata ATCC 90030, broth dilution, RPMI 1640 with MOPS, 48 hours
[11] = ATCC6258, C. krusei ATCC 6258, broth dilution, RPMI 1640 with MOPS, 48 hours
[12] = ATCC750, C. tropicalis ATCC 750, broth dilution, RPMI 1640 with MOPS, 48 hours
[13] = ATCC34664, C. neoformans ATCC 34664, broth dilution, RPMI 1640 with MOPS, 48 hours
[14] = ATCC46645, A. fumigatus ATCC 46645, broth dilution, RPMI 1640 with MOPS, 48 hours
[15] = ATCC16404, A. niger ATCC 16404, broth dilution, RPMI 1640 with MOPS, 48 hours
[16] = ATCC10052, F. proliferatum ATCC 10052, broth dilution, RPMI 1640 with MOPS, 48 hours

SMILES: CCCC/C=C/c1ccc(OCc2cn(CC(O)(Cn3cncn3)c3ccc(F)cc3F)nn2)cc1 (stereo not shown) [Compound 1C-2, (E)-2-(2,4-Difluorophenyl)-1-(4-((4-(n-hex-1-en-1-yl)phenoxy)methyl)-1H-1,2,3-triazol-1-yl)-3-(1H-1,2,4-triazol-1-yl)propan-2-ol]
- MIC50 [1, 9]: 0.12 µg/mL (≈ 0.243 µM)
- MIC50 [2, 10]: 0.06 µg/mL (≈ 0.121 µM)
- MIC50 [3, 11]: 2 µg/mL (≈ 4.04 µM)
- MIC50 [4, 12]: 1 µg/mL (≈ 2.02 µM)
- MIC50 [5, 13]: 0.25 µg/mL (≈ 0.506 µM)
- MIC50 [6, 14]: 4 µg/mL (≈ 8.09 µM)
- MIC50 [7, 15]: 4 µg/mL (≈ 8.09 µM)
- MIC50 [8, 16]: > 4 µg/mL

SMILES: OC(Cn1cncn1)(Cn1cncn1)c1ccc(F)cc1F [Fluconazole, reference compound]
- MIC50 [1, 9]: 0.25 µg/mL (≈ 0.816 µM)
- MIC50 [2, 10]: 1 µg/mL (≈ 3.27 µM)
- MIC50 [3, 11]: 32 µg/mL (≈ 104 µM)
- MIC50 [4, 12]: 1 µg/mL (≈ 3.27 µM)
- antifungal activity against Candida tropicalis (in words) ([4]; summary statement): weaker antifungal activity
- MIC50 [5, 13]: 2 µg/mL (≈ 6.53 µM)
- antifungal activity against Cryptococcus neoformans (in words) ([5]; summary statement): weaker antifungal activity
- MIC50 [6, 14]: > 128 µg/mL
- MIC50 [7, 15]: > 128 µg/mL
- MIC50 [8, 16]: > 128 µg/mL

SMILES: CCCN1CCN(c2ccc(C(C)=O)cc2)CC1 [Compound 11A-1]
- MIC50 [1, 9]: > 128 µg/mL
- MIC50 [2, 10]: > 128 µg/mL
- MIC50 [3, 11]: > 128 µg/mL
- MIC50 [4, 12]: > 128 µg/mL
- MIC50 [5, 13]: > 128 µg/mL
- MIC50 [6, 14]: > 128 µg/mL
- MIC50 [7, 15]: > 128 µg/mL
- MIC50 [8, 16]: > 128 µg/mL

SMILES: CC(=O)Nc1ccc(OCc2cn(CC(O)(Cn3cncn3)c3ccc(F)cc3F)nn2)cc1 (stereo not shown) [Compound 1D-4, 1-(4-(4-Acetylaminophenyloxy)methyl-1H-1,2,3-triazol-1-yl)-2-(2,4-difluorophenyl)-3-(1H-1,2,4-triazol-1-yl)propan-2-ol]
- MIC50 [1, 9]: 32 µg/mL (≈ 68.2 µM)
- MIC50 [2, 10]: 32 µg/mL (≈ 68.2 µM)
- MIC50 [3, 11]: > 128 µg/mL
- MIC50 [4, 12]: > 128 µg/mL
- MIC50 [5, 13]: > 128 µg/mL
- MIC50 [6, 14]: > 128 µg/mL
- MIC50 [7, 15]: > 128 µg/mL
- MIC50 [8, 16]: > 128 µg/mL

SMILES: CC(=O)/C=C/c1ccc(OCc2cn(CC(O)(Cn3cncn3)c3ccc(F)cc3F)nn2)cc1 (stereo not shown) [Compound 1B-3, (E)-4-(4-((1-(2-(2,4-Difluorophenyl)-2-hydroxy-3-(1H-1,2,4-triazol-1-yl)propyl)-1H-1,2,3-triazol-4-yl)methoxy)phenyl)but-3-en-2-one]
- MIC50 ([1]; ATCC24433, 48 h): 0.12 µg/mL (≈ 0.25 µM)
- MIC50 ([2]; ATCC90030, 48 h): 0.5 µg/mL (≈ 1.04 µM)
- MIC50 ([3]; ATCC6258, 48 h): 16 µg/mL (≈ 33.3 µM)
- MIC50 ([4]; ATCC750, 48 h): 1 µg/mL (≈ 2.08 µM)
- MIC50 ([5]; ATCC34664, 48 h): 2 µg/mL (≈ 4.16 µM)
- MIC50 ([6]; ATCC46645, 48 h): > 64 µg/mL
- MIC50 ([7]; ATCC16404, 48 h): > 64 µg/mL
- MIC50 ([8]; ATCC10052, 48 h): > 64 µg/mL

SMILES: C#CCOc1ccc(/C=C/C(=O)c2ccc(N3CCN(CCCC)CC3)cc2)cc1 [Compound 6A-2]
- MIC50 [1, 9]: > 4 µg/mL
- MIC50 [2, 10]: > 4 µg/mL
- MIC50 [3, 11]: > 4 µg/mL
- MIC50 [4, 12]: > 4 µg/mL
- MIC50 [5, 13]: > 4 µg/mL
- MIC50 [6, 14]: > 4 µg/mL
- MIC50 [7, 15]: > 4 µg/mL
- MIC50 [8, 16]: > 4 µg/mL

SMILES: COc1ccc(C(=O)/C=C/c2ccc(Cl)cc2)cc1 [Compound 9A-3]
- MIC50 [1, 9]: > 4 µg/mL
- MIC50 [2, 10]: > 4 µg/mL
- MIC50 [3, 11]: > 4 µg/mL
- MIC50 [4, 12]: > 4 µg/mL
- MIC50 [5, 13]: > 4 µg/mL
- MIC50 [6, 14]: > 4 µg/mL
- MIC50 [7, 15]: > 4 µg/mL
- MIC50 [8, 16]: > 4 µg/mL

SMILES: CCCCCN1CCN(c2ccc(C(=O)/C=C/c3ccc(OCc4cn(CC(O)(Cn5cncn5)c5ccc(F)cc5F)nn4)cc3)cc2)CC1 (stereo not shown) [Compound 1B-7, (E)-3-(4-((1-(2-(2,4-Difluorophenyl)-2-hydroxy-3-(1H-1,2,4-triazol-1-yl)propyl)-1H-1,2,3-triazol-4-yl)methoxy)phenyl)-1-(4-(4-n-pentylpiperazin-1-yl)phenyl)-prop-2-en-1-one]
- MIC50 [1, 9]: 0.5 µg/mL (≈ 0.718 µM)
- MIC50 [2, 10]: 0.5 µg/mL (≈ 0.718 µM)
- MIC50 [3, 11]: 8 µg/mL (≈ 11.5 µM)
- MIC50 [4, 12]: 2 µg/mL (≈ 2.87 µM)
- MIC50 [5, 13]: 2 µg/mL (≈ 2.87 µM)
- MIC50 [6, 14]: > 2 µg/mL
- MIC50 [7, 15]: > 2 µg/mL
- MIC50 [8, 16]: > 2 µg/mL

SMILES: COc1ccc(/C=C/C(=O)c2ccc(O)cc2)cc1 [Compound 9A-2]
- MIC50 [1, 9]: > 32 µg/mL
- MIC50 [2, 10]: > 32 µg/mL
- MIC50 [3, 11]: > 32 µg/mL
- MIC50 [4, 12]: > 32 µg/mL
- MIC50 [5, 13]: > 32 µg/mL
- MIC50 [6, 14]: > 32 µg/mL
- MIC50 [7, 15]: > 32 µg/mL
- MIC50 [8, 16]: > 32 µg/mL

SMILES: COc1ccc(/C=C/C(=O)c2ccc(OCc3cn(CC(O)(Cn4cncn4)c4ccc(F)cc4F)nn3)cc2)cc1 (stereo not shown) [Compound 1A-2, (E)-1-(4-((1-(2-(2,4-Difluorophenyl)-2-hydroxy-3-(1H-1,2,4-triazol-1-yl)propyl)-1H-1,2,3-triazol-4-yl)methoxy)phenyl)-3-(4-methoxyphenyl)prop-2-en-1-one]
- MIC50 [1, 9]: 0.25 µg/mL (≈ 0.437 µM)
- MIC50 [2, 10]: 1 µg/mL (≈ 1.75 µM)
- MIC50 [3, 11]: 8 µg/mL (≈ 14 µM)
- MIC50 [4, 12]: 2 µg/mL (≈ 3.49 µM)
- MIC50 [5, 13]: 1 µg/mL (≈ 1.75 µM)
- MIC50 [6, 14]: > 4 µg/mL
- MIC50 [7, 15]: > 4 µg/mL
- MIC50 [8, 16]: > 4 µg/mL

SMILES: COc1ccc(/C=C/C(=O)c2ccc(OC)cc2)cc1 [Compound 9A-1]
- MIC50 [1, 9]: > 4 µg/mL
- MIC50 [2, 10]: > 4 µg/mL
- MIC50 [3, 11]: > 4 µg/mL
- MIC50 [4, 12]: > 4 µg/mL
- MIC50 [5, 13]: > 4 µg/mL
- MIC50 [6, 14]: > 4 µg/mL
- MIC50 [7, 15]: > 4 µg/mL
- MIC50 [8, 16]: > 4 µg/mL

SMILES: C#CCOc1ccc(/C=C/C(=O)c2ccc(N3CCN(CCC)CC3)cc2)cc1 [Compound 6A-1, (E)-3-(4-(Prop-2-yn-1-yloxy)phenyl)-1-(4-(4-propylpiperazin-1-yl)phenyl)prop-2-en-1-one]
- MIC50 [1, 9]: > 4 µg/mL
- MIC50 [2, 10]: > 4 µg/mL
- MIC50 [3, 11]: > 4 µg/mL
- MIC50 [4, 12]: > 4 µg/mL
- MIC50 [5, 13]: > 4 µg/mL
- MIC50 [6, 14]: > 4 µg/mL
- MIC50 [7, 15]: > 4 µg/mL
- MIC50 [8, 16]: > 4 µg/mL

SMILES: COc1ccc(CN2CCN(c3ccc(C(=O)/C=C/c4ccc(OCc5cn(CC(O)(Cn6cncn6)c6ccc(F)cc6F)nn5)cc4)cc3)CC2)cc1 (stereo not shown) [Compound 1B-8, (E)-3-(4-((1-(2-(2,4-Difluorophenyl)-2-hydroxy-3-(1H-1,2,4-triazol-1-yl)propyl)-1H-1,2,3-triazol-4-yl)methoxy)phenyl)-1-(4-(4-(4-methoxybenzyl)piperazin-1-yl)phenyl)prop-2-en-1-one]
- MIC50 [1, 9]: 0.12 µg/mL (≈ 0.161 µM)
- MIC50 [2, 10]: 0.12 µg/mL (≈ 0.161 µM)
- MIC50 [3, 11]: 2 µg/mL (≈ 2.68 µM)
- MIC50 [4, 12]: 0.5 µg/mL (≈ 0.67 µM)
- MIC50 [5, 13]: 0.5 µg/mL (≈ 0.67 µM)
- MIC50 [6, 14]: > 8 µg/mL
- MIC50 [7, 15]: > 8 µg/mL
- MIC50 [8, 16]: > 8 µg/mL
